Here are results for three compounds from patent US20230131192A1, “1H-PYRAZOLO[4,3-d]PYRIMIDINE COMPOUNDS AS TOLL-LIKE RECEPTOR 7 (TLR7) AGONISTS” (BRISTOL-MYERS SQUIBB COMPANY, priority 2020, published 2023).

Each structure is given as a SMILES string.

One assay has as its target T1, human TLR7 (Homo sapiens, UniProt Q9NYK1).
T1 construct: host or cells: HEK-Blue TLR7 cells (engineered human embryonic kidney cells)
T1 sequence (Q9NYK1 27-1049): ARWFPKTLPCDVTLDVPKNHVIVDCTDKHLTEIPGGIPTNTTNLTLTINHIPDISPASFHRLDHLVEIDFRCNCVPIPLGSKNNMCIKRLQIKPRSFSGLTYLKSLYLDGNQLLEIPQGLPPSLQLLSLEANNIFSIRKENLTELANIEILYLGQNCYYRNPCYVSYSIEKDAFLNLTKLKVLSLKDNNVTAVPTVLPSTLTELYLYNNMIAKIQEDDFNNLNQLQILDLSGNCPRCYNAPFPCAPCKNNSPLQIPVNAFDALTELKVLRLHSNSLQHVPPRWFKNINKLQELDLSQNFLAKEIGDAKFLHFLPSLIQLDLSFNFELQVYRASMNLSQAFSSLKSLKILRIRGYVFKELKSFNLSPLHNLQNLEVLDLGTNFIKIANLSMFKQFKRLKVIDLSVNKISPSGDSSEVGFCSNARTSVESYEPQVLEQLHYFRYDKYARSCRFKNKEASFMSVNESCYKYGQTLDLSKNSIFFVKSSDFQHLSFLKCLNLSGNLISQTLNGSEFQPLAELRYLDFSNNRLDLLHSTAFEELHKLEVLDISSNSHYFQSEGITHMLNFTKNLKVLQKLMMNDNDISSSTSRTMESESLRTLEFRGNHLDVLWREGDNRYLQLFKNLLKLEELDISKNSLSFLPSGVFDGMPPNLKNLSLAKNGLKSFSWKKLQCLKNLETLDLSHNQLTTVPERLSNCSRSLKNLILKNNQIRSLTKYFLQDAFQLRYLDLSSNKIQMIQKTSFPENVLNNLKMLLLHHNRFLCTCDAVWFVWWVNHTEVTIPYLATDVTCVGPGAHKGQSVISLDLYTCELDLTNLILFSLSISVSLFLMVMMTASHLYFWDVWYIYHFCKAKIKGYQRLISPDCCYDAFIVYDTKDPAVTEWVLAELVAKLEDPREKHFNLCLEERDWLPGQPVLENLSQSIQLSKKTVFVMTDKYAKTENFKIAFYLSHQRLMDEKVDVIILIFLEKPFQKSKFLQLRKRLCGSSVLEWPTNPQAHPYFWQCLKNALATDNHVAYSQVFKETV
As to the kind of experiment: Human TLR7 agonist (reporter) activity assay, HEK-Blue TLR7 cells, SEAP reporter. It is filed as cell-based. Particulars: 18 h treatment, average where assay was performed multiple times, read-out: hTLR7 Agonism EC50. As for the experimental part:
This procedure describes a method for assaying human TLR7 (hTLR7) agonist activity of the compounds disclosed in this specification.
HEK-Blue™ TLR7 cells were added to each well of a 384-well tissue-culture plate (15,000 cells per well) and incubated 16-18 h at 37° C., 5% CO2. Compounds (100 nl) were dispensed into wells containing the HEK-Blue™ TLR cells and the treated cells were incubated at 37° C., 5% CO2. After 18 h treatment ten microliters of freshly-prepared Quanti-Blue™ reagent (Invivogen) was added to each well, incubated for 30 min (37° C., 5% CO2) and SEAP levels measured using an Envision plate reader (OD=620 nm). The half maximal effective concentration values (EC50; compound concentration which induced a response halfway between the assay baseline and maximum) were calculated.

Another assay concerns CD69. As to the kind of experiment: Induction of CD69 in human whole blood. Format: cell-based. As to conditions: 17 hrs, CD69 surface staining, 100% set to 1 uM of resiquimod, average where assay was performed multiple times, read-out: hWB CD69 EC50. As for the experimental part: The induction of Type I interferon (IFN) MX-1 genes and the B-cell activation marker CD69 are downstream events that occur upon activation of the TLR7 pathway. The following is a human whole blood assay that measures their induction in response to a TLR7 agonist.
Heparinized human whole blood was harvested from human subjects and treated with test TLR7 agonist compounds at 1 mM. The blood was diluted with RPMI 1640 media and Echo was used to predot 10 nL per well giving a final concentration of 1 uM (10 nL in 10 uL of blood). After mixing on a shaker for 30 sec, the plates were covered and placed in a 37° C. chamber for o/n=17 hrs. Fixing/lysis buffer was prepared (5×→1× in H2O, warm at 37° C.; Cat # BD 558049) and kept the perm buffer (on ice) for later use.
For surface markers staining (CD69): prepared surface Abs: 0.045 ul hCD14-FITC (ThermoFisher Cat # MHCD1401)+0.6 ul hCD19-ef450 (ThermoFisher Cat #48-0198-42)+1.5 ul hCD69-PE (cat # BD555531)+0.855 ul FACS buffer. Added 3 ul/well, spin1000 rpm for 1 min and mixed on shaker for 30 sec, put on ice for 30 mins. Stop stimulation after 30 minutes with 70 uL of prewarmed 1× fix/lysis buffer and use Feliex mate to resuspend (15 times, change tips for each plate) and incubate at 37 C for 10 minutes.
Centrifuge at 2000 rpm for 5 minutes aspirate with HCS plate washer, mix on shaker for 30 sec and then wash with 70 uL in dPBS and pelleted 2×s (2000 rpm for 5 min) and 50 ul wash in FACS buffer pelleted 1×s(2000 rpm for 5 min). Mix on shaker for 30 sec. For Intracellular markers staining (MX-1): Add 50 ul of BD Perm buffer III and mix on shaker for 30 sec. Incubate on ice for 30 minutes (in the dark). Wash with 50 uL of FACS buffer 2× (spin @2300 rpm×5 min after perm) followed by mixing on shaker for 30 sec. Resuspended in 20 ul of FACS buffer containing MX1 antibody ( )(4812)-Alexa 647: Novus Biologicals #NBP2-43704AF647) 20 ul FACS bf+0.8 ul hlgG+0.04 ul MX-1. Spin 1000 rpm for 1 min, mix on shaker for 30se and the samples were incubated at RT in the dark for 45 minutes followed by washing 2×FACS buffer (spin @2300 rpm×5 min after perm). Resuspend 20 ul (35 uL total per well) of FACS buffer and cover with foil and place in 4° C. to read the following day. Plates were read on iQuePlus. The results were loaded into toolset and […] curves are generated in curve master. The y-axis 100% is set to 1 uM of resiquimod.

As a reminder, the EC50 is the concentration that produces a half-maximal response.

Take `COc1cc(CNC2CCOCC2)ccc1Cn1ncc2nc(N)nc(NCC[C@@H](O)C3CC3)c21` [Compound 109b, (1R)-3-({5-amino-1-[(2-methoxy-4-{[(oxan-4-yl)amino]methyl}phenyl)methyl]-1H-pyrazolo[4,3-d]pyrimidin-7-yl}amino)-1-cyclopropylpropan-1-ol]: the EC50 at human TLR7 worked out at 1330 nM; in the assay on CD69 it was 163 nM.

Take `COc1cc(CN2CCN(CCO)CC2)ccc1Cn1nc(C)c2nc(N)nc(NCC[C@H](O)C3CC3)c21` [Compound 126, (1S)-3-({5-amino-1-[(4-{[4-(2-hydroxyethyl)piperazin-1-yl]methyl}-2-methoxyphenyl)methyl]-3-methyl-1H-pyrazolo[4,3-d]pyrimidin-7-yl}amino)-1-cyclopropylpropan-1-ol]: the EC50 at human TLR7 is 740 nM; in the assay with CD69, 25.3 nM.

In the case of `COc1cc(CNC2CCOCC2)ccc1Cn1ncc2nc(N)nc(N[C@H](CO)CC3CC3)c21` [Compound 108, (2S)-2-({5-amino-1-[(2-methoxy-4-{[(oxan-4-yl)amino]methyl}phenyl)methyl]-1H-pyrazolo[4,3-d]pyrimidin-7-yl}amino)-3-cyclopropylpropan-1-ol], the EC50 is 342 nM on human TLR7 and 119 nM in the assay on CD69.
